Laboratory results as given in patent publication US9359196B2, “Antiproliferative compositions comprising curcumin analogs and methods of producing and using same” (The Board of Regents of the University of Oklahoma, priority 2009, dated 2016).

Columns and labels:
[1] = Histopathology of liver, lung and kidney; assay type: in vivo; settings: rats treated with CLEFMA liposomes
Text: After the animals were euthanized, a part of the liver, lung and kidney were fixed in 10% formalin. The formalin-preserved tissues were used for histology by staining 5 μm sections of paraffin-embedded tissues with H&E stain. The sections were read by a veterinary pathologist (OUHSC, Oklahoma City) in a blinded fashion for the presence of necrosis, hemorrhage, inflammation or any other pathological changes.

[2] = tested on: H441 cells; assay: Cell proliferation assay in H441 cells (hexosaminidase), Example 3; assay type: cell-based, human
Description: Cell proliferation assay: CLEFMA was synthesized and analyzed for purity by the methods detailed elsewhere. Doxorubicin (DOX, GBiosciences, Maryland Heights, Mo.), Paclitexal (PAX, EMD Chemicals, Gibbstown, N.J.), Curcumin (CUR, Sigma, St. Louis, Mo.) and Gemcitabine (GMCB, Acros Organics, Morris Plains, N.J.) were obtained from commercial sources. For cell proliferation assays, the cells were seeded in 96-well, flat-bottom tissue culture plates at a density of 5,000 cells per well. The cells were allowed to adhere and grow overnight, followed by their treatment with drugs (0-20 μM). All drugs were added as solutions in dimethylsulfoxide (DMSO) filtered through 0.2-μm nylon filters; control wells received identical amounts of DMSO without any drugs. The inhibition of cell proliferation was determined after 24-48 h by measuring the decrease in hexosaminidase activity as described by Landegren [Landegren, 1984]; para-nitrophenol-N-acetyl-beta-D-glucosaminide was used as a substrate for the hexosaminidase enzyme. To assess the effect of antioxidants, the cells were simultaneously treated with catalase (CAT, 1000 U), superoxide dismutase (SOD, 500 U) and N-acetylcysteine (NAC, 1 mM). A non-toxic concentration of CAT (Worthington, N.J.), SOD (Sigma, St. Louis, Mo.) and NAC (Enzo Life Sciences, Plymouth Meeting, Pa.) was established in H441 cells prior to these experiments.

[3] = Octanol-water partition coefficient (pre-formulation); assay type: physicochemical
Text: The pre-formulation studies on CLEFMA depicted it as a highly hydrophobic drug with octanol-water partition coefficient of 5.66. It was hypothesized that liposomes might serve as a vehicle for CLEFMA preparation meant for parenteral administration. Parenteral liposome formulations of lipophilic drugs are challenging. Incorporation of a lipid-partitioning drug in liposomes may produce structurally instable liposomes, resulting in burst-release of drug, rapid clearance from the body, and/or overall poor efficacy. The entrapment of cyclodextrin (CD)-based inclusion complexes (IC) inside the liposomes can be a reliable and effective method of encapsulation of hydrophobic drugs. This strategy was first reported by Gregoriades [McCormack et al., 1994], and has recently been used for the encapsulation of isotretinoin [Kaur et al., 2010].

In the case of `O=C(O)C=CC(=O)N1CC(=Cc2ccccc2Cl)C(=O)C(=Cc2ccccc2Cl)C1` [Compound 29, 4-[3,5-Bis-(2-chlorobenzylidene)-4-oxo-piperidin-1-yl]-4-oxo-2-butenoic acid], the “histopathological toxicity in liver, lung and kidney” value [1] is reported as “no toxicities in these tissues”, the “antiproliferative activity versus PAX, GMCB, DOX, CUR” value ([2]; 10 and 20 μM) is reported as “antiproliferative activity comparable to that shown by these drugs” and the “effect of co-administered CAT, SOD, NAC on cytotoxicity” value ([2]; CLEFMA 10 and 20 μM) is reported as “partially rescue CLEFMA-induced cytotoxicity”. For the same molecule, the octanol-water partition coefficient [3] was 5.66.
